Changes are numbered by the printed parent chain. Like-named read-outs stand apart in the source and are kept apart here. Non-standard residues stand in square brackets, D forms with d. Residues, ends and D or L forms follow the SMILES beside them. pT = C[C@@H](OP(=O)(O)O)[C@H](N)C(=O)O
Tests used:
14-3-3c = molecular target: T1, 14-3-3c (Nicotiana tabacum, UniProt P93343); assay: Isothermal titration calorimetry, ligand binding to 14-3-3c alone; settings: for binding of the toxin by itself to 14-3-3: unliganded 14-3-3, no peptide
T1 construct: Tobacco 14-3-3c (Gene bank AAC49892, amino acids 1-260 with an N-terminal His-tag); His-tag (N); made in house; host or cells: E. coli
T1 sequence (P93343 1-260): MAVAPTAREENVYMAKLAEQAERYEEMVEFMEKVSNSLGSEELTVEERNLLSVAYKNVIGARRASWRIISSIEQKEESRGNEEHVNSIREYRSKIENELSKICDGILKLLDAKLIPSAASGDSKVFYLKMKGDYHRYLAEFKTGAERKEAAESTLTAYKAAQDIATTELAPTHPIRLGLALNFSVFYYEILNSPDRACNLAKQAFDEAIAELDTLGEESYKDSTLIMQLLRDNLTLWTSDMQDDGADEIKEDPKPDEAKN
Description: (§1) In order to obtain more quantitative data with respect to the phosphorylated pentapeptide used in the structural analysis, thermodynamic constants were determined by means of isothermal titration calorimetry (ITC, 16).
(§2) Binding of ligands to 14-3-3c was measured with a MCS isothermal titration calorimeter (MicroCal Inc., Northampton). Ligands (fusicoccin 0.4 mM; phosphopbeptides 0.5 mM) were titrated in 8 to 20 μl steps by injection into solutions containing 14-3-3c (0.05 mM) alone or 14-3-3c saturated with one of the ligands in 25 mM HEPES buffer pH 6.5, 10 mM MgCl2, 5 mM CaCl2, 5 mM DTE at 35° C. Binding isotherms were fitted using a single binding site model and used to calculate the binding enthalpy (ΔH) and association constant (Ka) of the binding reaction. Dissociation constants (KD=1/Ka), Gibbs free energy changes (ΔG=−RTInKa) and entropy changes (TΔS=ΔH−ΔG) were calculated from ΔH and Ka. For the binding of peptide to a FC/14-3-3c complex, we also used non-saturating conditions of FC and observed two binding events which were fitted independently to K1 and K4. All measurements were repeated at least three times.

[1] = molecular target: T2, binary 14-3-3/peptide complex (Nicotiana tabacum, UniProt P93343); assay: Isothermal titration calorimetry, FC titrated to 14-3-3c saturated with peptide; type: binding; settings: ITC, 35° C., pH 6.5
T2 construct: Tobacco 14-3-3c (Gene bank AAC49892, amino acids 1-260 with an N-terminal His-tag); His-tag (N); made in house; host or cells: E. coli (14-3-3c); the phosphopeptide was synthesized by Biosyntan (Berlin)
T2 sequence (P93343 1-260): T1 sequence (P93343 1-260)
Description: as §1, §2

[2] = molecular target: T3, 14-3-3-fusicoccin complex (Nicotiana tabacum, UniProt P93343); assay: Isothermal titration calorimetry, peptide binding to FC/14-3-3c complex; settings: for increase of the binding affinity of the peptide by fusicoccin: complete binding cycle, ITC
T3 construct: Tobacco 14-3-3c (Gene bank AAC49892, amino acids 1-260 with an N-terminal His-tag); His-tag (N); made in house; host or cells: E. coli
T3 sequence (P93343 1-260): T1 sequence (P93343 1-260)
Description: as §1, §2

[3] = molecular target: T4, 14-3-3c preloaded with Gln-Ser-Tyr-pThr-Val-Pro (Nicotiana tabacum, UniProt P93343); assay: ITC, FC binding to 14-3-3c preloaded with C-terminally extended phosphopeptide; settings: peptide with added C-terminal Pro, FIG. 3b upper panel
T4 construct: Tobacco 14-3-3c (Gene bank AAC49892, amino acids 1-260 with an N-terminal His-tag); His-tag (N); made in house; host or cells: E. coli (14-3-3c); the phosphopeptide was synthesized by Biosyntan (Berlin)
T4 sequence (P93343 1-260): T1 sequence (P93343 1-260)
Description: as §2
(§3) PMA binding to-14-3-3 is unique in that the penultimate C-terminal residue is the phosphorylated threonine (YpTV-COOH). […] Taken together; this explains why there is no effect of FC on any other known 14-3-3-ligand interaction. To date, all plant proteins characterized as interacting directly with 14-3-3 homologs contain the consensus binding motifs with the notable exception of the plasma membrane H^+-ATPase. […]

[4] = molecular target: T5, 14-3-3c with phosphopeptide after removal of Val (Nicotiana tabacum, UniProt P93343); assay: ITC, FC binding to 14-3-3c with phosphopeptide lacking the C-terminal Val; settings: peptide with C-terminal Val deleted, FIG. 3b lower panel
T5 construct: Tobacco 14-3-3c (Gene bank AAC49892, amino acids 1-260 with an N-terminal His-tag); His-tag (N); made in house; host or cells: E. coli (14-3-3c); the phosphopeptide was synthesized by Biosyntan (Berlin)
Description: as §2, §3

[5] = Solubility of FC in aqueous solutions; type: physicochemical
[6] = molecular target: T6, wild type 14-3-3 / PMA-GST fusion construct (66 C-terminal residues of PMA) (Homo sapiens, UniProt P63104); assay: Far-western-blot overlay, wild type 14-3-3; type: binding; settings: 0, 500 nM and 1000 nM fusicoccin
T6 construct: made in house
T6 sequence (P63104 1-245): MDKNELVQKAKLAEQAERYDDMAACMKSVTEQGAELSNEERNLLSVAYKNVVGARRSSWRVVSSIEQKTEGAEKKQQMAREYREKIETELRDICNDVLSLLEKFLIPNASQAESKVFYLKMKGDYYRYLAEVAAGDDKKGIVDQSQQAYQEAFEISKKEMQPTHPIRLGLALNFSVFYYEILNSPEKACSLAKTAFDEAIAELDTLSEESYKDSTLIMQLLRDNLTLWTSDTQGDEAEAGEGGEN
Description: (§4) In order to study the functional relevance of selected amino acids within the above-described binding pocket, residues the following point mutants were analysed in respect FC binding: (a) N49Q, (b) D222E, (c) F126E and (d) I175E in the homologous sequence of human 14-3-3z. The mutant proteins were expressed, purified and FC binding were tested in an in vitro assay in the presence of the 66 C-terminal residues of a PMA-GST fusion construct.
(§5) For the detection of FC binding a far-western-blot (FIG. 4) was performed. In this in vitro assay, the PMA-GST fusion construct, containing the 66 C-terminal residues of PMA, was immobilised on a nitrocellulose membrane via electroblotting of SDS-PAGE-separated proteins. The interacting protein, a his-tagged 14-3-3 construct was allowed to react with the GST-fusion protein in an overlay-solution. The interaction of these two proteins was mediated by fusicoccin. […] The actual binding of the his-tagged 14-3-3 protein was visualized after washing the membrane by immunodetecton with an anti-His-antibody, which was employed as primary antibody.

[7] = molecular target: T7, 14-3-3z N49Q / PMA-GST fusion construct (Homo sapiens, UniProt P63104, N42Q); assay: Far-western-blot overlay, 14-3-3 N49Q; type: binding; settings: mutation N49Q
T7 construct: made in house
T7 sequence (P63104 1-245 N42Q): T6 sequence (P63104 1-245) with N42Q
Description: as §4, §5

[8] = molecular target: T8, 14-3-3z D222E / PMA-GST fusion construct (Homo sapiens, UniProt P63104, D213E); assay: Far-western-blot overlay, 14-3-3 D222E; type: binding; settings: mutation D222E
T8 construct: made in house
T8 sequence (P63104 1-245 D213E): T6 sequence (P63104 1-245) with D213E
Description: as §4, §5

[9] = molecular target: T9, 14-3-3z F126E / PMA-GST fusion construct (Homo sapiens, UniProt P63104, F117E); assay: Far-western-blot overlay, 14-3-3 F126E; type: binding; settings: mutation F126E
T9 construct: made in house
T9 sequence (P63104 1-245 F117E): T6 sequence (P63104 1-245) with F117E
Description: as §4, §5

[10] = molecular target: T10, 14-3-3z I175E / PMA-GST fusion construct (Homo sapiens, UniProt P63104, I166E); assay: Far-western-blot overlay, 14-3-3 I175E; type: binding; settings: mutation I175E
T10 construct: made in house
T10 sequence (P63104 1-245 I166E): T6 sequence (P63104 1-245) with I166E
Description: as §4, §5

[11] = molecular target: T11, 14-3-3z N49Q / GST-PMA2-CT66 (Homo sapiens, UniProt P63104, N42Q); assay: GST-pulldown, 14-3-3 N49Q; type: binding; settings: pull-down, mutation N49Q
T11 construct: made in house
T11 sequence (P63104 1-245 N42Q): T6 sequence (P63104 1-245) with N42Q
Description: as §4
(§6) Alternatively, a second in-vitro method was used to screen for fusicoccin binding. In this pull-down assay (FIG. 5), the GST-PMA fusion protein is immobilized on GSH-sepharose-beads and the his-tagged 14-3-3 protein will bind in the presence of fusioccin to the GST-fusion protein and can subsequently be found in the sepharose-fraction after washing and centrifugation of the beads. The detection again takes place via SDS-PAGE and Western-Blotting with subsequent immunodetection.

[12] = molecular target: T12, 14-3-3z D222E / GST-PMA2-CT66 (Homo sapiens, UniProt P63104, D213E); assay: GST-pulldown, 14-3-3 D222E; type: binding; settings: pull-down, mutation D222E
T12 construct: made in house
T12 sequence (P63104 1-245 D213E): T6 sequence (P63104 1-245) with D213E
Description: as §4, §6

[13] = molecular target: T13, 14-3-3z F126E / GST-PMA2-CT66 (Homo sapiens, UniProt P63104, F117E); assay: GST-pulldown, 14-3-3 F126E; type: binding; settings: pull-down, mutation F126E
T13 construct: made in house
T13 sequence (P63104 1-245 F117E): T6 sequence (P63104 1-245) with F117E
Description: as §4, §6

[14] = molecular target: T14, 14-3-3z I175E / GST-PMA2-CT66 (Homo sapiens, UniProt P63104, I166E); assay: GST-pulldown, 14-3-3 I175E; type: binding; settings: pull-down, mutation I175E
T14 construct: made in house
T14 sequence (P63104 1-245 I166E): T6 sequence (P63104 1-245) with I166E
Description: as §4, §6

14-3-3 = molecular target: T15, 14-3-3 (Nicotiana tabacum, UniProt P93343); assay: Binding of non-phosphorylated peptide to 14-3-3 (not shown, method not stated)
T15 sequence (P93343 1-260): T1 sequence (P93343 1-260)
Description: The phosphopeptide occupies the central binding groove of 14-3-3c in an extended conformation. The phosphate moiety of the phosphothreonine forms electrostatic interactions with a positively charged patch formed by residues Lys56, Arg63, and Arg136 and a H-bond to Tyr137 (FIG. 1b). […] Additionally, there are a number of H-bonds (cut-off limit 3.4 Å) between the peptide, mostly from the main-chain, and conserved protein side-chains. The peptide's C-terminal barboxylate is mostly contacted by basic residues and the side chains of the Val and Tyr residue flanking the phosphothreonine form van der Waals contacts to the protein (FIG. 1b). The structure confirms the notion that the C-terminal YTV-motif is highly conserved in plant P-type H^+-ATPases.

C=CC(C)(C)OC[C@H]1O[C@H](O[C@@H]2C3=C([C@H](C)COC(C)=O)C[C@H](O)[C@]3(C)/C=C3/[C@@H](COC)CC[C@H]3[C@@H](C)[C@H]2O)[C@H](O)[C@@H](OC(C)=O)[C@@H]1O [Fusicoccin]
Kd (14-3-3c; calculated from K4 and K1×K2=K3×K4, read-out: affinity of FC to 14-3-3, more reliable value): 66 µM
Kd (14-3-3c; direct ITC determination, somewhat unreliable, read-out: affinity of FC to 14-3-3): ~50 µM
binding of the toxin by itself to 14-3-3 (14-3-3c; listed as FC): weak binding
binding of the toxin by itself to 14-3-3 (14-3-3c; listed as toxin): binds only weakly
Kd [1]: 0.7 µM
increase of the binding affinity of the peptide by fusicoccin [2]: 93 fold
increase of the binding affinity of the peptide by fusicoccin ([2]; listed as toxin): more than 90 fold
FC binding [3]: drastically weakens the binding
FC binding ([3]; listed as FC): severely impaired
FC binding [4]: drastically weakens the binding
FC binding ([4]; listed as FC): significant lower binding affinity
solubility in aqueous solutions [5]: insolubility
fusicoccin mediated interaction of 14-3-3 with PMA-GST [6]: interaction was only observed in the presence of fusicoccin
fusicoccin mediated PMA binding [7]: strong reduction
fusicoccin mediated PMA binding [8]: strong reduction
fusicoccin mediated PMA binding [9]: complete inhibition of binding
fusicoccin mediated PMA binding [10]: complete inhibition of binding
fusicoccin mediated PMA binding [11]: strong reduction
fusicoccin mediated PMA binding [12]: strong reduction
fusicoccin mediated PMA binding [13]: complete inhibition of binding
fusicoccin mediated PMA binding [14]: complete inhibition of binding

Gln-Ser-Tyr-Thr-Val (QSYTV; printed: Gln-Ser-Tyr-Thr-Val) [non-phosphorylated version of the PMA2 C-terminal pentapeptide]
binding to 14-3-3 (14-3-3): binding could not be detected

CC(C)[C@H](NC(=O)[C@@H](NC(=O)[C@H](Cc1ccc(O)cc1)NC(=O)[C@H](CO)NC(=O)[C@@H](N)CCC(N)=O)[C@@H](C)OP(=O)(O)O)C(=O)O [peptide, Gln-Ser-Tyr-pThr-Val] (H-QSY[pT]V-OH; N-terminus assumed)
Kd (14-3-3c): 2.5 µM
enthalpy (ΔH) of peptide binding (14-3-3c; unliganded 14-3-3): -10 kcal/mol
−TAS of peptide binding (14-3-3c; unliganded 14-3-3): 1.7 kcal/mol
enthalpy (ΔH) of peptide binding ([2]; 14-3-3-FC complex): -11.8 kcal/mol
−TAS of peptide binding ([2]; 14-3-3-FC complex): 0.4 kcal/mol
binding between 14-3-3 and the peptide ([2]; after saturation of the binding site with FC, FIG. 3A): much tighter
